US11311610B2, “Immune-modulating agents and uses therefor” (UNIVERSITY OF TECHNOLOGY SYDNEY, priority 2010, dated 2022)
Where a SMILES comes first, the peptide text is derived from it.

Legend:
RAW264.7 cells = experiment: Binding of FITC-conjugated LPS to RAW 264.7 cells (flow cytometry); assay type: cell-based, murine; settings: 0.1-10 μg/mL, 20 min at 4° C.
Protocol: (§1) FIG. 9 is a graphical representation showing LPS neutralization by FhHDM-1. The ability of FhHDM-1 (Δ), FhHDM-1 p1 (●) or FhHDM-1 p3 (▪) to bind to LPS was investigated by (A) incubating a range of concentrations of proteins (0.02-2 μg/well) in an LPS-coated (100 ng/well) microtitre plate. Bound peptides were detected by ELISA using rabbit anti-FhHDM-1 as a primary antibody. (B) FhHDM-1 or derived peptides (0.1 μg) were incubated in the presence of LPS (0.05-5 μg/well) and bound peptides measured as described above. Binding of peptides to the LPS-immobilized plates was expressed as a percentage of that measured for 2 μg (for panel A) or 0.1 μg (for panel B) of FhHDM-1. Data are the means±SD from three separate experiments. (C) FhHDM-1 and FhHDM-1 p3 but not FhHDM-1 p1 reduced the interaction between LPS and LBP as effectively as LL-37. LPS-coated microtitre plates were incubated with 5 μg/well of LL-37, FhHDM-1 or derived peptides for 1 h prior to the addition of 10% human sera in PBS. Interaction of LBP with LPS was measured by ELISA using an anti-LBP primary antibody and expressed as a percentage of that detected for 10% sera in the absence of added peptides. Data are the mean±SD of three separate experiments. Statistical significance was calculated using the student t-test and represent a comparison to the binding of 10% sera to immobilized LPS. (D) Binding of FITC-conjugated LPS to RAW264.7 cells was inhibited by LL-37, FhHDM-1 and peptides. […] The binding of FITC-LPS was analyzed by flow cytometry. LPS binding was expressed as a percentage of the mean fluorescence obtained for the addition of FITC-LPS to cells in the absence of peptides. […] Two hours later, sera was collected and serum levels of TNF and (F) IL-10 measured by ELISA. (G) Peritoneal macrophages were isolated, cultured unstimulated in media overnight and then levels of TNF and (H) IL-10 in the culture measured by ELISA. […]
The effect of FhHDM-1 and derived peptides on the binding of FITC-LPS to CD14+ cells was determined by flow cytometry of the murine macrophage cell line RAW264.7. […]

[1] = tested on: interaction of LPS with LPS-binding protein (LBP); experiment: Assay for the interaction of LPS with LBP (ELISA); set-up: species or system mouse; settings: 5 μg/well, 1 h before 10% sera; ELISA with anti-LBP
Protocol: as §1
The ability of FhHDM-1 and derived peptides to block the interaction of LPS with LPB was assessed by ELISA using an anti-LBP primary antibody. […]

[2] = tested on: LPS-induced inflammatory response; experiment: Endotoxin (LPS)-induced inflammation in mice, co-injection; assay type: in vivo, BALB/c mice
Protocol: FIG. 9 is a graphical representation showing LPS neutralization by FhHDM-1. The ability of FhHDM-1 (Δ), FhHDM-1 p1 (●) or FhHDM-1 p3 (▪) to bind to LPS was investigated by (A) incubating a range of concentrations of proteins (0.02-2 μg/well) in an LPS-coated (100 ng/well) microtitre plate. Bound peptides were detected by ELISA using rabbit anti-FhHDM-1 as a primary antibody. (B) FhHDM-1 or derived peptides (0.1 μg) were incubated in the presence of LPS (0.05-5 μg/well) and bound peptides measured as described above. Binding of peptides to the LPS-immobilized plates was expressed as a percentage of that measured for 2 μg (for panel A) or 0.1 μg (for panel B) of FhHDM-1. Data are the means±SD from three separate experiments. (C) FhHDM-1 and FhHDM-1 p3 but not FhHDM-1 p1 reduced the interaction between LPS and LBP as effectively as LL-37. LPS-coated microtitre plates were incubated with 5 μg/well of LL-37, FhHDM-1 or derived peptides for 1 h prior to the addition of 10% human sera in PBS. Interaction of LBP with LPS was measured by ELISA using an anti-LBP primary antibody and expressed as a percentage of that detected for 10% sera in the absence of added peptides. Data are the mean±SD of three separate experiments. Statistical significance was calculated using the student t-test and represent a comparison to the binding of 10% sera to immobilized LPS. (D) Binding of FITC-conjugated LPS to RAW264.7 cells was inhibited by LL-37, FhHDM-1 and peptides. RAW264.7 cells (5×10^5 cells/mL) were incubated with 1 μg/mL of FITC-conjugated LPS in the presence of increasing concentrations (0.1-10 μg/mL) of FhHDM-1, FhHDM-1 p1 and FhHDM-1 p3 and LL-37 in RPMI 1640 containing 10% FBS for 20 min at 4° C. The binding of FITC-LPS was analyzed by flow cytometry. LPS binding was expressed as a percentage of the mean fluorescence obtained for the addition of FITC-LPS to cells in the absence of peptides. Data are the mean±SD of two independent experiments. (E) FhHDM-1 and FhHDM-1 p3 both suppress the inflammatory response induced by LPS in mice. BALB/c mice were intra-peritoneally injected with 1 μg of LPS alone or combined with 1 μg of FhHDM-1, FhHDM-1 p3 or LL-37. Two hours later, sera was collected and serum levels of TNF and (F) IL-10 measured by ELISA. (G) Peritoneal macrophages were isolated, cultured unstimulated in media overnight and then levels of TNF and (H) IL-10 in the culture measured by ELISA. Data are the mean±SD of six mice in each group. Statistical significance represents a comparison to the levels of cytokines secreted by mice given LPS only.
Human Defense peptides protect against harmful inflammatory responses by preventing activation of macrophages by classical TLR ligands such as LPS (Scott et al. 2002, J. Immunol. 169, 3883-3891). Here, the inventors employed a murine model to examine whether FhHDM-1 and derived peptides can suppress LPS-induced Th1 inflammation. BALB/c mice were injected intra-peritoneally with 1 μg of LPS alone or LPS combined with 1 μg of FhHDM-1, FhHDM-1 p3 or LL-37. Two hours later, sera was collected and serum levels of the pro-inflammatory mediators TNF and IL-10 were measured by ELISA. […] Because macrophages are the main source of pro-inflammatory mediators in this murine model of inflammation, peritoneal macrophages were isolated from treated mice (LPS±FhHDM-1, peptides or LL-37 as described above), cultured unstimulated in media overnight and then levels of TNF and IL-10 in the culture media were measured by ELISA.
Six week-old female BALB/c mice were purchased from ARC (Perth, Australia) and maintained according to the guidelines of the University of Technology Sydney Animal Care and Ethics committee. For the analysis for endotoxin-induced inflammation, mice were intra-peritoneally injected with 1 μg of E. coli LPS (serotype 111:B4; Sigma) either with or without 1 μg FhHDM-1 or derived peptides. After 2 h mice were sacrificed by cervical dislocation. […]

[3] = tested on: ATPase activity associated with lysosomal membranes (equivalent to vATPase activity); experiment: ATPase activity of enriched lysosomal membranes; assay type: biochemical, murine; settings: lysosomal membranes from RAW264.7 macrophage lysates
Protocol: FIG. 17 is a graphical representation showing that FhHDM-1 P3 inhibits ATPase activity associated with lysosomal membranes in a concentration-dependent manner. A cellular fraction enriched for lysosomes was prepared by sequential centrifugation of RAW264.7 macrophage lysates. The lysosomal membranes were recovered and assayed (with or without HDM peptides) for ATPase activity using a commercially available kit.
FIG. 18 is a diagrammatic representation showing a sequence alignment of various synthetic HDM peptides. The amphipathic helix is shaded in grey as are the mutated residues in peptides nonHP and 2Pro. NonHP is a variant of FhHDM-1 P3 in which the hydrophobic face of the FhHDM-1 amphipathic helix was removed. 2Pro is a variant of FhHDM-1 P3 in which two prolines substitutions were incorporated to disrupt the alpha-helix. Cons_p3 is a consensus peptide corresponding to various FhHDM-1 homologs. All peptides in the alignment were tested for their ability to inhibit the ATPase activity associated with enriched lysosomal membranes (prepared from RAW macrophages). Those with inhibitory activity are shown in bold text.
A cellular fraction enriched for lysosomes was prepared by sequential centrifugation of RAW264.7 macrophage lysates. The lysosome pellet was extracted with water and the resulting lysosomal membranes were recovered and assayed (with or without HDM peptides) for ATPase activity using a commercially available kit.

RAW macrophages = experiment: ATP induced macrophage cell death (LDH release); assay type: cell-based, murine; settings: 20 μg/mL pre-treatment 1 h, then ATP 5 mM 2 h
Protocol: FIG. 16 is a graphical representation showing that FhHDM-1 P3 prevents ATP induced cell death in RAW macrophages. RAW macrophages were pretreated with either FhHDM-1 (20 μg/mL) or FhHDM-1 p3 (20 μg/mL) for 1 h, then washed and cultured in the presence of ATP (5 mM) for 2 h. Cell death (% cytotoxicity) was quantified according to the amount of LDH released by the cells into culture media.
Raw macrophages were pre-treated with either HDM (20 μg/mL) or FhHDM-1 P3 (20 μg/mL) for 1 h, washed and then cultured in the presence of ATP (5 mM) for 2 h. The culture supernatants were collected and assayed for LDH activity with an LDH release kit. The amount of LDH release by cells treated with ATP only was used to represent 100% cytotoxicity.

[4] = established T1D, early randomized trials; cited from earlier work
[5] = BALB/c mice, 1 μg LPS mixed with 1 μg i.p., 2 h
[6] = macrophages from treated mice, cultured unstimulated overnight

LL-37 [reference compound]
binding of FITC-LPS to RAW264.7 macrophages (RAW264.7 cells): most strongly inhibited
interaction between LPS and LBP [1]: significantly reduced
serum levels of IL-10 [2, 5]: significant reduction
serum levels of TNF [2, 5]: significant reduction
LPS-induced secretion of IL-10 from peritoneal macrophages [2, 6]: significantly inhibited
TNF secreted from peritoneal macrophages [2, 6]: did not significantly reduce

HDMp2: SEQ ID NO:122, 27 aa, comprising a shorter amphipathic helix than FhHDM-1 peptide 3 (NLGEKITEVITILLNRLTDRLEKYAGN; FhHDM-1 peptide 2)
ATPase activity associated with lysosomal membranes [3]: inhibitory

CC[C@H](C)[C@H](NC(=O)[C@H](CCCCN)NC(=O)[C@H](CCC(=O)O)NC(=O)CNC(=O)[C@H](CC(C)C)NC(=O)[C@H](CC(N)=O)NC(=O)[C@H](CC(=O)O)NC(=O)[C@H](CCCCN)NC(=O)[C@H](C)NC(=O)[C@H](CC(C)C)NC(=O)[C@H](Cc1ccc(O)cc1)NC(=O)[C@H](C)NC(=O)[C@H](CCSC)NC(=O)[C@H](C)N)C(=O)N[C@H](C(=O)N[C@@H](CCC(=O)O)C(=O)N[C@H](C(=O)N[C@H](C(=O)N[C@H](C(=O)N[C@H](C(=O)N[C@@H](CC(C)C)C(=O)N[C@@H](CC(C)C)C(=O)N[C@@H](CC(N)=O)C(=O)N[C@@H](CCCNC(=N)N)C(=O)N[C@@H](CC(C)C)C(=O)N[C@H](C(=O)N[C@@H](CC(=O)O)C(=O)N[C@@H](CCCNC(=N)N)C(=O)N[C@@H](CC(C)C)C(=O)N[C@@H](CCC(=O)O)C(=O)N[C@@H](CCCCN)C(=O)N[C@@H](Cc1ccc(O)cc1)C(=O)N[C@@H](C)C(=O)NCC(=O)O)[C@@H](C)O)[C@@H](C)CC)[C@@H](C)O)[C@@H](C)CC)C(C)C)[C@@H](C)O [FhHDM-1 p3] (H-AMAYLAKDNLGEKITEVITILLNRLTDRLEKYAG-OH)
LDH release induced by ATP (cytotoxicity of ATP) (RAW macrophages): inhibited LDH release

Cn1cnc([N+](=O)[O-])c1Sc1ncnc2nc[nH]c12 [azathioprine]
treated patients becoming independent of insulin therapy [4]: approximately 50%
